In one data set the test system is Bel-7402. Description: Cytotoxicity against human Bel7402 cells after 96 hrs by MTT assay. The class given is functional, cell-based. To be noted: Bel-7402, 96 h. Background: Formazan colour is commonly taken as a measure of viable cells.
The next data set concerns BGC-823. Description: Cytotoxicity against human BGC823 cells after 96 hrs by MTT assay. The class given is functional, cell-based. To be noted: BGC-823, 96 h.
In a further data set the test system is HCT-8. Description: Cytotoxicity against human HCT8 cells after 96 hrs by MTT assay. The class given is functional, cell-based. Particulars: HCT-8, 96 h.
Another data set relates to A549. Put plainly: Cytotoxicity against human A549 cells after 96 hrs by MTT assay. Format: functional, cell-based. To be noted: A549, 96 h.
The subject of the next data set is A2780. Put plainly: Cytotoxicity against human A2780 cells after 96 hrs by MTT assay. Format: functional, cell-based. To be noted: A2780, 96 h.
Data set [1] in a line: Toxicity in rabbit erythrocytes assessed as hemolysis at 0.01 uM to 100 uM. The class given is cell-based, Oryctolagus cuniculus. To be noted: erythrocyte.

From ChEMBL document CHEMBL1142427, “Cytotoxic triterpenoid saponins acylated with monoterpenic acid from Pithecellobium lucidum” (J Nat Prod, 2008) come the findings set out here.

As usually defined, the IC50 is the concentration needed to halve the response being measured. Higher therefore signals weaker potency in that assay.

On to `C[C@H]1O[C@@H](OC[C@H]2O[C@@H](O[C@H]3CC[C@]4(C)[C@H]5CC=C6[C@@H]7CC(C)(C)[C@@H](O)C[C@]7(C(=O)O)[C@H](O)C[C@@]6(C)[C@]5(C)CC[C@H]4C3(C)C)[C@H](O)[C@@H](O)[C@@H]2O)[C@H](O[C@@H]2OC[C@@H](O)[C@H](O)[C@H]2O)[C@@H](O)[C@H]1O`, for which the IC50 in the data set on Bel-7402 is more than 10 µM; with BGC-823 it was more than 10 µM; with HCT-8, more than 10 µM; with A549, more than 10 µM; in the data set with A2780 it was more than 10000 nM. Moreover, the Activity result in data set [1] was “Non-toxic”.
For the molecule `C=C[C@@](C)(CC/C=C(\CO)C(=O)O[C@H]1C[C@]2(C(=O)O[C@@H]3O[C@H](CO)[C@@H](O)[C@H](O)[C@H]3O[C@@H]3O[C@@H](C)[C@H](O[C@@H]4O[C@@H](CO)[C@H](O)[C@H]4O)[C@@H](O[C@@H]4O[C@H](CO)[C@@H](O)[C@H](O)[C@H]4O)[C@H]3O)[C@H](O)C[C@]3(C)C(=CC[C@@H]4[C@@]5(C)CC[C@H](O[C@@H]6O[C@H](CO[C@@H]7O[C@H](C)[C@H](O)[C@H](O)[C@H]7O[C@@H]7OC[C@@H](O)[C@H](O)[C@H]7O)[C@@H](O)[C@H](O)[C@H]6O)C(C)(C)[C@@H]5CC[C@]43C)[C@@H]2CC1(C)C)O[C@@H]1O[C@H](C)[C@@H](O)[C@H](O)[C@H]1O`, the IC50 with Bel-7402 is more than 10 µM; in the data set on BGC-823 it was more than 10 µM; with HCT-8 it was 1.5 µM; in the data set on A549, more than 10 µM; in the data set on A2780 it was 1350 nM. For the same molecule, the Activity result in data set [1] is “Non-toxic”.
In the case of `CC[C@@]1(O)C(=O)OCc2c1cc1n(c2=O)Cc2cc3ccccc3nc2-1` [CAMPTOTHECIN], the IC50 was determined as 12.5 µM with Bel-7402; 9.67 µM with BGC-823; 3.15 µM in the data set on HCT-8; 3.12 µM in the data set with A549; 280 nM in the data set with A2780.
With `C=C[C@@](C)(CC/C=C(\CO)C(=O)O[C@H]1C[C@]2(C(=O)O[C@@H]3O[C@H](CO)[C@@H](O)[C@H](O)[C@H]3O[C@@H]3O[C@@H](C)[C@H](O[C@@H]4O[C@@H](CO)[C@H](O)[C@H]4O)[C@@H](O[C@@H]4O[C@H](CO)[C@@H](O)[C@H](O)[C@H]4O)[C@H]3O)[C@H](O)C[C@]3(C)C(=CC[C@@H]4[C@@]5(C)CC[C@H](O[C@@H]6O[C@H](CO[C@@H]7O[C@H](C)[C@H](O)[C@H](O)[C@H]7O[C@@H]7OC[C@@H](O)[C@H](O)[C@H]7O)[C@@H](O)[C@H](O)[C@H]6NC(C)=O)C(C)(C)[C@@H]5CC[C@]43C)[C@@H]2CC1(C)C)O[C@@H]1O[C@H](C)[C@@H](O)[C@H](O)[C@H]1O` [JULIBROSIDE J29], the IC50 with Bel-7402 worked out at 1.65 µM; in the data set with BGC-823, 1.9 µM; in the data set on HCT-8, 1.5 µM; in the data set with A549, 1.8 µM; in the data set on A2780, 610 nM. For the same molecule, in data set [1], the Activity entry is recorded as “Non-toxic”.
In the case of `C=C[C@@](C)(CC/C=C(\CO)C(=O)O[C@H]1C[C@]2(C(=O)O[C@@H]3O[C@H](CO)[C@@H](O)[C@H](O)[C@H]3O[C@@H]3O[C@@H](C)[C@H](O[C@@H]4O[C@@H](CO)[C@H](O)[C@H]4O)[C@@H](O[C@@H]4O[C@H](C)[C@@H](O)[C@H](O)[C@H]4O)[C@H]3O)[C@H](O)C[C@]3(C)C(=CC[C@@H]4[C@@]5(C)CC[C@H](O[C@@H]6O[C@H](CO[C@@H]7O[C@H](C)[C@H](O)[C@H](O)[C@H]7O[C@@H]7OC[C@@H](O)[C@H](O)[C@H]7O)[C@@H](O)[C@H](O)[C@H]6O)C(C)(C)[C@@H]5CC[C@]43C)[C@@H]2CC1(C)C)O[C@@H]1O[C@H](C)[C@@H](O)[C@H](O)[C@H]1O` [PITHELUCOSIDE A], the IC50 is more than 10 µM in the data set on Bel-7402; more than 10 µM in the data set on BGC-823; more than 10 µM in the data set with HCT-8; more than 10 µM with A549; more than 10000 nM in the data set with A2780. Also, the Activity result in data set [1] is reported as “Non-toxic”.
For `C=C[C@](C)(O)CC/C=C(\CO)C(=O)O[C@H]1C[C@]2(C(=O)O[C@@H]3O[C@H](CO)[C@@H](O)[C@H](O)[C@H]3O[C@@H]3O[C@@H](C)[C@H](O[C@@H]4O[C@@H](CO)[C@H](O)[C@H]4O)[C@@H](O[C@@H]4O[C@H](CO)[C@@H](O)[C@H](O)[C@H]4O)[C@H]3O)[C@H](O)C[C@]3(C)C(=CC[C@@H]4[C@@]5(C)CC[C@H](O[C@@H]6O[C@H](CO[C@@H]7O[C@H](C)[C@H](O)[C@H](O)[C@H]7O[C@@H]7OC[C@@H](O)[C@H](O)[C@H]7O)[C@@H](O)[C@H](O)[C@H]6O)C(C)(C)[C@@H]5CC[C@]43C)[C@@H]2CC1(C)C` [PITHELUCOSIDE B], the half-inhibitory concentration (IC50) with Bel-7402 is 2.54 µM; in the data set on BGC-823, more than 10 µM; in the data set with HCT-8, more than 10 µM; in the data set on A549, more than 10 µM; with A2780 it was 1230 nM. For the same molecule, the Activity entry in data set [1] is on record as “Non-toxic”.
For the molecule `C/C(=C\CO)CC/C=C(\CO)C(=O)O[C@H]1C[C@]2(C(=O)O[C@@H]3O[C@H](CO)[C@@H](O)[C@H](O)[C@H]3O[C@@H]3O[C@@H](C)[C@H](O[C@@H]4O[C@@H](CO)[C@H](O)[C@H]4O)[C@@H](O[C@@H]4O[C@H](CO)[C@@H](O)[C@H](O)[C@H]4O)[C@H]3O)[C@H](O)C[C@]3(C)C(=CC[C@@H]4[C@@]5(C)CC[C@H](O[C@@H]6O[C@H](CO[C@@H]7O[C@H](C)[C@H](O)[C@H](O)[C@H]7O[C@@H]7OC[C@@H](O)[C@H](O)[C@H]7O)[C@@H](O)[C@H](O)[C@H]6O)C(C)(C)[C@@H]5CC[C@]43C)[C@@H]2CC1(C)C` [PITHELUCOSIDE C], the IC50 in the data set with Bel-7402 was 7.56 µM; with BGC-823 it was more than 10 µM; in the data set on HCT-8, 4.24 µM; in the data set on A549 it was more than 10 µM; with A2780, 1660 nM. In addition, the Activity entry in data set [1] is given as “Non-toxic”.
